Laboratory results reported in ChEMBL document CHEMBL1124133, “Synthesis and hypolipidemic activity of 2-substituted isobutyric acid derivatives” (1988).

Key:
Type in all cases: functional
Details in all cases: route oral
[1] = test system: Rattus norvegicus; test: Hypolipidemic effects of compound on rat plasma high density lipoprotein cholesterol (HDLC) level after peroral administration at 100 mg/kg dose
[2] = test system: Rattus norvegicus; test: Hypolipidemic effect on rat plasma Total cholesterol (TC) level by peroral administration at 100 mg/kg dose
[3] = test system: Rattus norvegicus; test: Hypolipidemic effects in rat fed a high cholesterol diet (HC) by peroral administration at 100 mg/kg dose(increase in liver weight with respect to body weight mg/g)
[4] = test system: Rattus norvegicus; test: Hypolipidemic effects of compound on rat plasma Triglyceride (TG) level after peroral administration at 100 mg/kg dose
[5] = test system: Rattus norvegicus; test: Hypolipidemic effects in rat fed a high cholesterol diet (HC) by peroral administration at 100 mg/kg dose.(increase in liver weight with respect to body weight mg/g)
[6] = test system: Rattus norvegicus; test: Hypolipidemic effects in rat fed a normal diet by peroral administration at 100 mg/kg dose(increase in liver weight with respect to body weight mg/g)
[7] = test system: Rattus norvegicus; test: Hypolipidemic effects in rat plasma high density lipoprotein cholesterol (HDLC) by peroral administration at 100 mg/kg dose
[8] = test system: Rattus norvegicus; test: Hypolipidemic effect in rat plasma Total cholesterol (TC) by peroral administration at 100 mg/kg dose
[9] = test system: Rattus norvegicus; test: Hypolipidemic effects in rat fed a high cholesterol diet (HC) by peroral administration at 100 mg/kg dose.
[10] = test system: Rattus norvegicus; test: Hypolipidemic effects in rat plasma Triglyceride (TG) by peroral administration at 100 mg/kg dose
[11] = test system: Rattus norvegicus; test: Hypolipidemic effects in rat fed a high cholesterol diet (HC) by peroral administration at 100 mg/kg dose. (increase in liver weight with respect to body weight mg/g)
[12] = test system: Rattus norvegicus; test: Hypolipidemic effects in rat fed a normal diet by peroral administration at 100 mg/kg dose.
[13] = test system: Rattus norvegicus; test: Hypolipidemic effects in rat fed a normal diet by peroral administration at 100 mg/kg dose.(increase in liver weight with respect to body weight mg/g)
[14] = test system: Rattus norvegicus; test: Hypolipidemic effects of compound on rat plasma Triglyceride (TG) level after by peroral administration at 100 mg/kg dose
[15] = test system: Rattus norvegicus; test: Hypolipidemic effects in rat fed a high cholesterol diet (HC) by peroral administration at 100 mg/kg dose (increase in liver weight with respect to body weight mg/g)

SMILES: CC(C)(CCCOc1ccc(CCNC(=O)c2ccccc2)cc1)C(=O)O
- HDL-C [1]: 42.1 mg/dL
- TC [2]: 204.1 mg/dL
- Liver weight [3]: 57 mg (g of body weight)-1
- TG [4]: 49.4 mg/dL

SMILES: Cc1ccc(C)c(CCCCc2ccc(OCCCCC(C)(C)C(=O)O)cc2)c1
- HDL-C [1]: 56 mg/dL
- TC [2]: 125.9 mg/dL
- Liver weight [5]: 59.9 mg (g of body weight)-1
- Liver weight [6]: 40 mg (g of body weight)-1
- TG [4]: 34.4 mg/dL

SMILES: Cc1cnc(C(=O)OCC(C)(C)CCCCOc2ccc(CCCCc3ccccc3)cc2)c[n+]1[O-]
- HDL-C [7]: 45.3 mg/dL
- TC [8]: <146.6 mg/dL
- Liver weight [9]: 57.8 mg (g of body weight)-1
- TG [10]: 45.8 mg/dL

SMILES: CC(C)(CCCOc1ccc(Cc2ccccc2)cc1)C(=O)O
- HDL-C [1]: 29.9 mg/dL
- TC [2]: 284.4 mg/dL
- Liver weight [11]: 53.2 mg (g of body weight)-1
- TG [4]: 84.7 mg/dL

SMILES: CC(C)(CCCCCCCCCOc1ccc(CCCCc2ccccc2)cc1)C(=O)O
- HDL-C [7]: <55 mg/dL
- TC [8]: <173.6 mg/dL
- Liver weight [9]: 57.5 mg (g of body weight)-1
- Liver weight [12]: <38.2 mg (g of body weight)-1
- TG [10]: 57.3 mg/dL

SMILES: CC(C)(CCCOc1ccc(CCCc2ccccc2)cc1)C(=O)O
- HDL-C [1]: 40.6 mg/dL
- TC [2]: 217.5 mg/dL
- Liver weight [5]: 54 mg (g of body weight)-1
- Liver weight [13]: 39.1 mg (g of body weight)-1
- TG [14]: 79.5 mg/dL

SMILES: CC(C)(CCCOc1ccc(CCCCCc2ccccc2)cc1)C(=O)O
- HDL-C [1]: 38.1 mg/dL
- TC [2]: 261.9 mg/dL
- Liver weight [5]: 54.1 mg (g of body weight)-1
- Liver weight [13]: 40 mg (g of body weight)-1
- TG [14]: 71.9 mg/dL

SMILES: Cc1ccc(CCCCc2ccc(OCCCCC(C)(C)C(=O)O)cc2)c(C)c1
- HDL-C [1]: 73 mg/dL
- TC [2]: 173.9 mg/dL
- Liver weight [3]: 62.3 mg (g of body weight)-1
- Liver weight [6]: 41.8 mg (g of body weight)-1
- TG [4]: 37 mg/dL

SMILES: CC(C)(CCCCOc1ccc(CCCCc2ccccc2)cc1)C(=O)OCc1cccnc1
- HDL-C [1]: 59.6 mg/dL
- TC [2]: 154.3 mg/dL
- Liver weight [5]: 58.2 mg (g of body weight)-1
- Liver weight [6]: 38 mg (g of body weight)-1
- TG [4]: 43.9 mg/dL

SMILES: CC(C)(CCCOc1ccc(CCCCCCc2ccccc2)cc1)C(=O)O
- HDL-C [1]: 38.4 mg/dL
- TC [2]: 256.1 mg/dL
- Liver weight [3]: 52.1 mg (g of body weight)-1
- TG [14]: 86.2 mg/dL

SMILES: CC(C)(CCCOc1ccc(C(=O)c2ccccc2)cc1)C(=O)O
- HDL-C [1]: 57.6 mg/dL
- TC [2]: 260.8 mg/dL
- Liver weight [3]: 81.8 mg (g of body weight)-1
- TG [4]: 53.6 mg/dL

SMILES: CC(C)(CCCOc1ccc(CCCCc2ccccc2)cc1)C(=O)O
- HDL-C [1]: 35.2 mg/dL
- TC [2]: 258.3 mg/dL
- Liver weight [5]: 54.5 mg (g of body weight)-1
- TG [4]: 76.9 mg/dL

SMILES: CC(C)(Oc1ccc(CCCCc2ccccc2)cc1)C(=O)O
- HDL-C [1]: 50.7 mg/dL
- TC [2]: 194.6 mg/dL
- Liver weight [3]: 67.1 mg (g of body weight)-1
- Liver weight [6]: 54.6 mg (g of body weight)-1
- TG [4]: 41.3 mg/dL

SMILES: CC(C)(CCCCOc1ccc(CCCCc2ccccc2)cc1)COC(=O)c1cccnc1
- HDL-C [1]: 49.9 mg/dL
- TC [2]: 152 mg/dL
- Liver weight [5]: 57.8 mg (g of body weight)-1
- Liver weight [6]: 39.7 mg (g of body weight)-1
- TG [4]: 46.7 mg/dL

SMILES: Cc1cnc(COC(=O)C(C)(C)CCCCOc2ccc(CCCCc3ccccc3)cc2)cn1
- HDL-C [1]: 51.7 mg/dL
- TC [2]: 181.5 mg/dL
- Liver weight [5]: 59.6 mg (g of body weight)-1
- Liver weight [6]: 38.2 mg (g of body weight)-1
- TG [14]: 36.9 mg/dL

SMILES: CC(C)(CCCOc1ccc(-c2ccccc2)cc1)C(=O)O
- HDL-C [1]: 39.9 mg/dL
- TC [2]: 222.7 mg/dL
- Liver weight [11]: 54.7 mg (g of body weight)-1
- TG [4]: 54.3 mg/dL

SMILES: CC(C)(CCCCCCCOc1ccc(CCCCc2ccccc2)cc1)C(=O)O
- HDL-C [7]: <65.2 mg/dL
- TC [8]: <145.7 mg/dL
- Liver weight [9]: 57.6 mg (g of body weight)-1
- Liver weight [12]: <40.1 mg (g of body weight)-1
- TG [10]: 43 mg/dL

SMILES: CC(C)(CCCOc1ccc(CCc2ccccc2)cc1)C(=O)O
- HDL-C [1]: 32 mg/dL
- TC [2]: 282.8 mg/dL
- Liver weight [5]: 53.5 mg (g of body weight)-1
- TG [4]: 92.7 mg/dL

SMILES: CC(C)(CCCCCOc1ccc(CCCCc2ccccc2)cc1)C(=O)O
- HDL-C [1]: 52.4 mg/dL
- TC [2]: 190.6 mg/dL
- Liver weight [5]: 58.3 mg (g of body weight)-1
- Liver weight [13]: 36.7 mg (g of body weight)-1
- TG [4]: 60.4 mg/dL

SMILES: CC(C)(CCCCCCCCCCOc1ccc(CCCCc2ccccc2)cc1)C(=O)O
- HDL-C [7]: 48.6 mg/dL
- TC [8]: 248.6 mg/dL
- Liver weight [9]: 57.2 mg (g of body weight)-1
- TG [10]: 52.8 mg/dL

SMILES: Cc1cnc(C(=O)OCC(C)(C)CCCCOc2ccc(CCCCc3ccccc3)cc2)cn1
- HDL-C [1]: 47.6 mg/dL
- TC [2]: 145.1 mg/dL
- Liver weight [5]: 58 mg (g of body weight)-1
- TG [4]: 41 mg/dL

SMILES: CC(C)(CCCCCCCCOc1ccc(CCCCc2ccccc2)cc1)C(=O)O
- HDL-C [7]: <53.7 mg/dL
- TC [8]: <150 mg/dL
- Liver weight [9]: 58.4 mg (g of body weight)-1
- Liver weight [12]: <39.3 mg (g of body weight)-1
- TG [10]: 47.6 mg/dL

SMILES: CC(C)(CCCCCCOc1ccc(CCCCc2ccccc2)cc1)C(=O)O
- HDL-C [1]: 58.1 mg/dL
- TC [2]: 150.7 mg/dL
- Liver weight [5]: 60.2 mg (g of body weight)-1
- Liver weight [6]: 42.3 mg (g of body weight)-1
- TG [4]: 48.9 mg/dL

SMILES: CCOC(=O)C(C)(C)Oc1ccc(Cl)cc1 [CLOFIBRATE]
- HDL-C [7]: 29.4 mg/dL
- TC [8]: <251.2 mg/dL
- Liver weight [9]: 52.8 mg (g of body weight)-1
- Liver weight [12]: <43.1 mg (g of body weight)-1
- TG [10]: <51.8 mg/dL

SMILES: Cc1ccc(C)c(OCCCC(C)(C)C(=O)O)c1 [GEMFIBROZIL]
- HDL-C [1]: 51.5 mg/dL
- TC [2]: 358.7 mg/dL
- Liver weight [15]: 54.8 mg (g of body weight)-1
- Liver weight [13]: 51.4 mg (g of body weight)-1
- TG [4]: 53.1 mg/dL
